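Briefly, cells in 96-well plates were exposed to five compound concentrations for 48 h, and endpoints were estimated by linear interpolation. The concentration for 50% growth inhibition is given as GI50. TGI denotes the concentration required for complete inhibition of growth.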
Key:
Assay in all cases: NCI anticancer screen, dose series, 48 h
[1] = test system: M14 melanoma
[2] = test system: HS 578T breast
[3] = test system: A498 renal
[4] = test system: CCRF-CEM leukemia
[5] = test system: HCT-15 colon
[6] = test system: NCI-H226 lung
[7] = test system: MOLT-4 leukemia
[8] = test system: K-562 leukemia
[9] = test system: OVCAR-3 ovarian
[10] = test system: SNB-19 CNS
[11] = test system: HL-60(TB) leukemia
[12] = test system: LOX IMVI melanoma
[13] = test system: UACC-62 melanoma
[14] = test system: OVCAR-8 ovarian
[15] = test system: MCF7 breast
[16] = test system: RPMI-8226 leukemia
[17] = test system: HCT-116 colon
[18] = test system: SNB-75 CNS
[19] = test system: PC-3 prostate
[20] = test system: ACHN renal
[21] = test system: COLO 205 colon
[22] = test system: TK-10 renal
[23] = test system: U251 CNS
[24] = test system: SR leukemia
[25] = test system: A549 NSCLC
[26] = test system: NCI-H522 lung
[27] = test system: MDA-MB-231 breast
[28] = test system: IGROV1 ovarian
[29] = test system: T-47D breast
[30] = test system: DU-145 prostate
[31] = test system: SN12C renal
[32] = test system: 786-0 renal
[33] = test system: NCI/ADR-RES ovarian
[34] = test system: RXF 393 renal
[35] = test system: KM12 colon
[36] = test system: BT-549 breast
[37] = test system: NCI-H23 lung
[38] = test system: SF-539 CNS
[39] = test system: SK-MEL-28 melanoma
[40] = test system: UO-31 renal
[41] = test system: UACC-257 melanoma
[42] = test system: SF-295 CNS
[43] = test system: SK-OV-3 ovarian
[44] = test system: NCI-H460 lung
[45] = test system: MALME-3M melanoma
[46] = test system: HOP-62 NSCLC
[47] = test system: SK-MEL-2 melanoma
[48] = test system: CAKI-1 renal
[49] = test system: OVCAR-5 ovarian
[50] = test system: SK-MEL-5 melanoma
[51] = test system: HCC-2998 colon
[52] = test system: SF-268 CNS
[53] = test system: HOP-92 NSCLC
[54] = test system: OVCAR-4 ovarian
[55] = test system: EKVX NSCLC
[56] = test system: SW-620 colon
[57] = test system: MDA-MB-435
[58] = test system: HT29 colon

## CCC(=O)c1ccc2c(c1)N(CCCN1CCN(CCO)CC1)c1ccccc1S2
[1]
  GI50: 2.22 µM
  TGI: 4.63 µM
[2]
  GI50: 13.3 µM
  TGI: 36.5 µM
[3]
  GI50: 8.33 µM
  TGI: 22.3 µM
[4]
  GI50: 9.67 µM
  TGI: 27.9 µM
[5]
  GI50: 9.88 µM
  TGI: 28.3 µM
[6]
  GI50: 17.6 µM
  TGI: 33.8 µM
[7]
  GI50: 11 µM
  TGI: 26.8 µM
[8]
  GI50: 3.24 µM
  TGI: 9.83 µM
[9]
  GI50: 15.6 µM
  TGI: 29.8 µM
[10]
  GI50: 18.5 µM
  TGI: 36.1 µM
[11]
  GI50: 12.7 µM
  TGI: 30.3 µM
[12]
  GI50: 11.1 µM
  TGI: 26.5 µM
[13]
  GI50: 2.2 µM
  TGI: 4.73 µM
[14]
  GI50: 16.9 µM
  TGI: 32.7 µM
[15]
  GI50: 12.4 µM
  TGI: 26.9 µM
[16]
  GI50: 8.82 µM
  TGI: 27.6 µM
[17]
  GI50: 10.5 µM
  TGI: 22.9 µM
[18]
  GI50: 13.5 µM
  TGI: 27 µM
[19]
  GI50: 11.5 µM
  TGI: 25.2 µM
[20]
  GI50: 16.2 µM
  TGI: 32 µM
[21]
  GI50: 12.1 µM
  TGI: 26.5 µM
[22]
  GI50: 13.9 µM
  TGI: 27.5 µM
[23]
  GI50: 13.2 µM
  TGI: 27.9 µM
[24]
  GI50: 11.7 µM
  TGI: 28.7 µM
[25]
  GI50: 16.2 µM
  TGI: 32.1 µM
[26]
  GI50: 15.9 µM
  TGI: 32.4 µM
[27]
  GI50: 13.1 µM
  TGI: 27.4 µM
[28]
  GI50: 12.4 µM
  TGI: 29.1 µM
[29]
  GI50: 14 µM
  TGI: 31.5 µM
[30]
  GI50: 15.4 µM
  TGI: 28.9 µM
[31]
  GI50: 16.3 µM
  TGI: 33 µM
[32]
  GI50: 13.2 µM
  TGI: 26.9 µM
[33]
  GI50: 14.7 µM
  TGI: 29.4 µM
[34]
  GI50: 12.2 µM
  TGI: 26.2 µM
[35]
  GI50: 14.9 µM
  TGI: 28.7 µM
[36]
  GI50: 14.9 µM
  TGI: 28.9 µM
[37]
  GI50: 15.9 µM
  TGI: 31.4 µM
[38]
  GI50: 12.2 µM
  TGI: 27 µM
[39]
  GI50: 2.75 µM
  TGI: 7.75 µM
[40]
  GI50: 7.82 µM
  TGI: 21.6 µM
[41]
  GI50: 2.86 µM
  TGI: 7.97 µM
[42]
  GI50: 12.2 µM
  TGI: 25.9 µM
[43]
  GI50: 16.8 µM
  TGI: 31.6 µM
[44]
  GI50: 17.6 µM
  TGI: 33.5 µM
[45]
  GI50: 8.85 µM
  TGI: 26.1 µM
[46]
  GI50: 16.2 µM
  TGI: 30.3 µM
[47]
  GI50: 17.7 µM
  TGI: 33.4 µM
[48]
  GI50: 13.4 µM
  TGI: 27.5 µM
[49]
  GI50: 15.7 µM
  TGI: 31.9 µM
[50]
  GI50: 8.65 µM
  TGI: 21.1 µM
[51]
  GI50: 11.8 µM
  TGI: 26.1 µM
[52]
  GI50: 15.4 µM
  TGI: 29.5 µM
[53]
  GI50: 3.43 µM
  TGI: 15.2 µM
[54]
  GI50: 12.9 µM
  TGI: 25.6 µM
[55]
  GI50: 13.1 µM
  TGI: 28.1 µM
[56]
  GI50: 16.1 µM
  TGI: 31 µM
[57]
  GI50: 3.24 µM
  TGI: 12.3 µM
[58]
  GI50: 3.98 µM
  TGI: 14.7 µM
